Source: ChEMBL document CHEMBL4000201, “Benzylideneoxymorphone: A new lead for development of bifunctional mu/delta opioid receptor ligands” (Bioorg Med Chem Lett, 2017)

Assays:
[1] = target: Mu-type opioid receptor (Homo sapiens, UniProt P35372); test: Displacement of [3H]DAMGO from human MOR expressed in CHO cells; type: cell-based
[2] = target: Delta-type opioid receptor (Homo sapiens, UniProt P41143); test: Displacement of [3H]DPDPE from human DOR expressed in CHO cells; type: cell-based
[3] = test system: Mus musculus; test: Antinociceptive activity in Swiss-Webster mouse assessed as maximum possible effect at 20 to 60 mg/kg, sc after 30 mins measured every 20 mins for 90 mins by hot plate test; type: functional
[4] = test system: Mus musculus; test: Antinociceptive activity in Swiss-Webster mouse assessed as time required for peak effect at 60 mg/kg, sc after 30 mins measured every 20 mins for 90 mins by hot plate test; type: functional
[5] = Displacement of [3H]DPDPE from DOR in guinea pig brain membranes measured after 60 mins by scintillation counting method; type: cell membranes, Cavia porcellus, Membrane

Chain of Mu-type opioid receptor (P35372 whole entry): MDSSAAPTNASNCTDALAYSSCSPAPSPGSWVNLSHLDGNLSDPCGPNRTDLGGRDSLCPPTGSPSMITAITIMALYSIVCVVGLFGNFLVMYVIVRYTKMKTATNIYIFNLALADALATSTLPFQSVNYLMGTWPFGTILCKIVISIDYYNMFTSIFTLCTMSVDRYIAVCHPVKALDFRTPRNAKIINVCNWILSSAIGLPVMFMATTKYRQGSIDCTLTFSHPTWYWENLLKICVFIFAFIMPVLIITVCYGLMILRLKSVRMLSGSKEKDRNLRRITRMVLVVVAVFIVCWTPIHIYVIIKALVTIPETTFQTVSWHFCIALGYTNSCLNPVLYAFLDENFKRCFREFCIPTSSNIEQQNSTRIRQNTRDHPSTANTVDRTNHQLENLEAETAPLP
Chain of Delta-type opioid receptor (P41143 whole entry): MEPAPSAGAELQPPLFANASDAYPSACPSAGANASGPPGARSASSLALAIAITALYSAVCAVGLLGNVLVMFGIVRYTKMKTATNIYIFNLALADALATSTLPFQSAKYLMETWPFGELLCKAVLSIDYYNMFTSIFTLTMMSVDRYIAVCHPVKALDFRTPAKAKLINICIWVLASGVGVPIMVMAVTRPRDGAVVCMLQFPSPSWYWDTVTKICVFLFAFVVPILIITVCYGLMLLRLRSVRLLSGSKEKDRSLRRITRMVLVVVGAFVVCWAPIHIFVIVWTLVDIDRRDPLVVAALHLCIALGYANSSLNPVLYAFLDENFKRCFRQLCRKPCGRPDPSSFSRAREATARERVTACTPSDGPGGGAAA

| SMILES | Ki [1] [nM] | Ki [2] [nM] | MPE [3] [%] | Time [4] [min] | Ki [5] [nM] |
| --- | --- | --- | --- | --- | --- |
| CN1CC[C@]23c4c5ccc(O)c4O[C@H]2C(=O)/C(=C/c2ccccc2)C[C@@]3(O)[C@H]1C5 | 17.5 | 14.4 | 40 | 50 | – |
| O=C1/C(=C/c2ccccc2)C[C@@]2(O)[C@H]3Cc4ccc(O)c5c4[C@@]2(CCN3CCCc2ccccc2)[C@H]1O5 | 313 | 168 | – | – | – |
| O=C1/C(=C/c2ccccc2)C[C@@]2(O)[C@H]3Cc4ccc(O)c5c4[C@@]2(CCN3CC2CC2)[C@H]1O5 [BNTX] | – | – | – | – | 6.2 |
